Laboratory results reported in ChEMBL document CHEMBL1128022, “Potent and selective inhibitors of gelatinase-A 2. carboxylic and phosphonic acid derivatives” (Bioorg Med Chem Lett, 1994).

Experiments:
Interstitial collagenase = target: T1, Interstitial collagenase (Homo sapiens, UniProt P03956); test: Inhibition of the Collagenase enzyme was determined from purified NSO cells.
T1 sequence (P03956 whole entry): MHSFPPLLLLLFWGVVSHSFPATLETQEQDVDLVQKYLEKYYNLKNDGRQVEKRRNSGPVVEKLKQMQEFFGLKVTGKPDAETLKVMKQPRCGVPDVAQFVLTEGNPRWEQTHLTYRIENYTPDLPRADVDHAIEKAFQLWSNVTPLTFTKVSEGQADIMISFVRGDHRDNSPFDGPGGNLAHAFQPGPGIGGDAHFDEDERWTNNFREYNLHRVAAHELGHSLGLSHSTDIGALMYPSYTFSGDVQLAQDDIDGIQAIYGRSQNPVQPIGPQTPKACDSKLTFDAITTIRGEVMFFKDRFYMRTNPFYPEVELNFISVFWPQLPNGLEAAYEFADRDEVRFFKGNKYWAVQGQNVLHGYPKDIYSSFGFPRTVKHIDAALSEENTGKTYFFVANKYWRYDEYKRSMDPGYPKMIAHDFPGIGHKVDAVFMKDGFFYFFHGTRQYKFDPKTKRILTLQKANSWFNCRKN

Stromelysin-1 = Stromelysin-1 (Homo sapiens, UniProt P08254); test: Inhibition of the Stromelysin enzyme was determined from purified NSO cells.
Chain of Stromelysin-1 (P08254 whole entry): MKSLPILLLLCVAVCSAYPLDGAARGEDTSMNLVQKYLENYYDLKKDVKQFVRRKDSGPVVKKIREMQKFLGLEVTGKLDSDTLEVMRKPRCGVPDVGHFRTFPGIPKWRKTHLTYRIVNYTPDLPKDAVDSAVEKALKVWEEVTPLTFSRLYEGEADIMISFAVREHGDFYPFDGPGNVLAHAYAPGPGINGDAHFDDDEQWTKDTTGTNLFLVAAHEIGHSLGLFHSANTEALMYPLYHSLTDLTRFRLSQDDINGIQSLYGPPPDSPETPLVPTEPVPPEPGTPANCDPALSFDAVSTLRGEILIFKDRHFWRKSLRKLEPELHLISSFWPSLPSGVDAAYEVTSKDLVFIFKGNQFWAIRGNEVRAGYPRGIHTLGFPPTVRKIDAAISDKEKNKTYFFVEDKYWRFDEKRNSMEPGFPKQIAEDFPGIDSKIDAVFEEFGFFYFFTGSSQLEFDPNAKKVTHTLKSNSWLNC

[1] = target: 72 kDa type IV collagenase (Homo sapiens, UniProt P08253); test: Inhibition of the Gelatinase-A enzyme was determined from purified NSO cells.
Chain of 72 kDa type IV collagenase (P08253 whole entry): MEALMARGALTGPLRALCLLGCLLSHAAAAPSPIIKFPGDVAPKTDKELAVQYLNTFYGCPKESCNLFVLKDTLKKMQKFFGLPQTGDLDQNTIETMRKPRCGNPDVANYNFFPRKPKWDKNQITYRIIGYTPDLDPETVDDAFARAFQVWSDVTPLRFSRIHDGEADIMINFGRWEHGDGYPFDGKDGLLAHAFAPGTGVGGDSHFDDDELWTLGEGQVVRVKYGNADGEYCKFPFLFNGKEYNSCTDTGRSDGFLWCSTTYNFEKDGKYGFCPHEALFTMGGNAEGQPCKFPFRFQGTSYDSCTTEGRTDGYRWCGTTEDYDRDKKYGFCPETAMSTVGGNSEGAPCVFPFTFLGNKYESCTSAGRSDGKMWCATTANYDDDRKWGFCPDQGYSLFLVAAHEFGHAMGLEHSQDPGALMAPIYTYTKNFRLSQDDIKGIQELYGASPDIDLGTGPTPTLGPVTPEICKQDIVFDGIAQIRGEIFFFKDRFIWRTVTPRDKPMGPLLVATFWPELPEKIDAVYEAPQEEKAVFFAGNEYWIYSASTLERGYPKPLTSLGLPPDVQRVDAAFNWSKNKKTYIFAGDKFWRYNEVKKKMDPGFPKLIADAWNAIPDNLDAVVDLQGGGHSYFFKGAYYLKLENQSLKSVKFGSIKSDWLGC

Structure (SMILES) | Ki (Interstitial collagenase) | Ki (Stromelysin-1) | Ki [1]
Cc1ccc(CCC[C@H](CC(=O)O)C(=O)N[C@@H](CC2CCCCC2)C(=O)NCCC(=O)O)cc1 | 100000 nM | 321 nM | 3.82 nM
O=C(N[C@@H](CC1CCCCC1)C(=O)NCCN1CCOCC1)[C@H](CCCc1ccccc1)CP(=O)(O)O | 100000 nM | 8400 nM | 812 nM
O=C(O)C[C@H](CCCc1ccccc1)C(=O)N[C@@H](CC1CCCCC1)C(=O)NCCc1ccccc1 | – | 20000 nM | –
Cc1ccc(CCC[C@H](CC(=O)O)C(=O)N[C@@H](CC2CCCCC2)C(=O)NCCc2ccc(S(N)(=O)=O)cc2)cc1 | 47800 nM | 384 nM | 0.9 nM
Cc1ccc(CCC[C@H](CC(=O)O)C(=O)N[C@@H](CC2CCCCC2)C(=O)NCCCCN2CCOCC2)cc1 | 55000 nM | 358 nM | 10.3 nM
COc1ccc(CCC[C@H](CC(=O)O)C(=O)N[C@@H](CC2CCCCC2)C(=O)NCCc2ccc(S(N)(=O)=O)cc2)cc1 | 10000 nM | 1110 nM | 1.83 nM
Cc1ccc(CCC[C@H](CP(=O)(O)O)C(=O)N[C@@H](CC2CCCCC2)C(=O)NCCc2ccccc2)cc1 (stereo in doubt; form 2) | 17000 nM | 277 nM | 2.5 nM
O=C(O)CCNC(=O)[C@H](CC1CCCCC1)NC(=O)[C@H](CCCc1ccccc1)CP(=O)(O)O | 22100 nM | 952 nM | 46.5 nM
NS(=O)(=O)c1ccc(CCNC(=O)[C@H](CC2CCCCC2)NC(=O)[C@H](CCCc2ccccc2)CC(=O)O)cc1 | 40200 nM | 952 nM | 6.4 nM
Cc1ccc(CCC[C@H](CC(=O)O)C(=O)N[C@@H](CC2CCCCC2)C(=O)NCCc2ccccc2)cc1 | 22100 nM | 472 nM | 1 nM
NS(=O)(=O)c1ccc(CCNC(=O)[C@H](CC2CCCCC2)NC(=O)[C@H](CCCc2ccc(Cl)cc2)CC(=O)O)cc1 | 55000 nM | 358 nM | 1.03 nM
O=C(N[C@@H](CC1CCCCC1)C(=O)NCCc1ccccc1)[C@H](CCCc1ccccc1)CP(=O)(O)O | 25000 nM | 701 nM | 18.9 nM
O=C(C[C@@H](CCCc1ccccc1)C(=O)N[C@@H](CC1CCCCC1)C(=O)NCCc1ccccc1)NO | – | – | 0.06 nM
COC(=O)CCNC(=O)[C@H](CC1CCCCC1)NC(=O)[C@H](CCCc1ccc(C)cc1)CC(=O)O | 41400 nM | 353 nM | 1.17 nM
Cc1ccc(CCC[C@H](CP(=O)(O)O)C(=O)N[C@@H](CC2CCCCC2)C(=O)NCCc2ccccc2)cc1 (stereo in doubt; form 1) | 100000 nM | 21200 nM | 366 nM
NC(=O)[C@H](CC1CCCCC1)NC(=O)[C@H](CCCc1ccccc1)CC(=O)O | 100000 nM | 3120 nM | 123 nM
NC(=O)CCCNC(=O)[C@H](CC1CCCCC1)NC(=O)[C@H](CCCc1ccccc1)CC(=O)O | 28400 nM | 1060 nM | 3.06 nM
CC(C)Cc1ccc(CCC[C@H](CC(=O)O)C(=O)N[C@@H](CC2CCCCC2)C(=O)NCCc2ccccc2)cc1 | > 10000 nM | > 10000 nM | 157 nM
